Results: USRE39862E1, “Unsaturated 14, 15-cyclopropanoandrostanes, a method for their production and pharmaceutical compositions containing these compounds” (Schering AG, priority 2000, dated 2007)

What was measured:
[1] = target: T1, progesterone receptor of the rabbit uterus (Oryctolagus cuniculus, UniProt P06186); experiment: binding to the progesterone receptor of the rabbit uterus (reference substance progesterone)
T1 construct: from tissue; host or cells: rabbit uterus
T1 sequence (P06186 1-930): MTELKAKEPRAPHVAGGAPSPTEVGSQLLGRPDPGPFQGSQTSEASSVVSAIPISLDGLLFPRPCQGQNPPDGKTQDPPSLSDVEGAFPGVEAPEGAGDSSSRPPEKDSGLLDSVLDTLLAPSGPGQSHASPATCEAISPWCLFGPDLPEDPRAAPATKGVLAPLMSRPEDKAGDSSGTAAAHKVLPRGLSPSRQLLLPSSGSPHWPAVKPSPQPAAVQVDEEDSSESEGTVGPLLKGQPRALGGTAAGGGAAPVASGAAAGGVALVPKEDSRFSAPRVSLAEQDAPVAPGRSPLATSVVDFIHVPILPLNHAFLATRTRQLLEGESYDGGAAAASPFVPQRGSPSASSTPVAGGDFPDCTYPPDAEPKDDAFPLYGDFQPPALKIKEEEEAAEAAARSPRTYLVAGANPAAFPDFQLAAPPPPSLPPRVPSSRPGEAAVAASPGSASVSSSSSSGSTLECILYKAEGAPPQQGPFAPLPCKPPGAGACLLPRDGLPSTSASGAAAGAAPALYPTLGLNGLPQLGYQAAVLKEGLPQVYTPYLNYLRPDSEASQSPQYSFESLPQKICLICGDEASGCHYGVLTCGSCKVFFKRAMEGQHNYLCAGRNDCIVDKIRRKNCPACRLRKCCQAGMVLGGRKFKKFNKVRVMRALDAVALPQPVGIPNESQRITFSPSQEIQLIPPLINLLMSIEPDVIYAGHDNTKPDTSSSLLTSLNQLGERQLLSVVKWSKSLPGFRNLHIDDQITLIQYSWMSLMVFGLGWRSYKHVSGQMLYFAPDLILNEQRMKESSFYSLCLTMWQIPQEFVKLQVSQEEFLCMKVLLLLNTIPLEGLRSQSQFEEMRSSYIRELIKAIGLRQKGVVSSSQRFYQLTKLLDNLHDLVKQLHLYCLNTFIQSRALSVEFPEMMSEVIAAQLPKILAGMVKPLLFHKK

[2] = pregnancy maintenance test; settings: in vivo
[3] = target: T2, androgen receptor of the rat prostate (Rattus norvegicus, UniProt P15207); experiment: binding to the androgen receptor of the rat prostate (reference substance R 1881); settings: reference substance 17β-hydroxy-17α-methyl-estra-4,9,11-triene-3-one (R 1881)
T2 construct: to the androgen receptor of the rat prostate; from tissue; host or cells: rat prostate
T2 sequence (P15207 1-902): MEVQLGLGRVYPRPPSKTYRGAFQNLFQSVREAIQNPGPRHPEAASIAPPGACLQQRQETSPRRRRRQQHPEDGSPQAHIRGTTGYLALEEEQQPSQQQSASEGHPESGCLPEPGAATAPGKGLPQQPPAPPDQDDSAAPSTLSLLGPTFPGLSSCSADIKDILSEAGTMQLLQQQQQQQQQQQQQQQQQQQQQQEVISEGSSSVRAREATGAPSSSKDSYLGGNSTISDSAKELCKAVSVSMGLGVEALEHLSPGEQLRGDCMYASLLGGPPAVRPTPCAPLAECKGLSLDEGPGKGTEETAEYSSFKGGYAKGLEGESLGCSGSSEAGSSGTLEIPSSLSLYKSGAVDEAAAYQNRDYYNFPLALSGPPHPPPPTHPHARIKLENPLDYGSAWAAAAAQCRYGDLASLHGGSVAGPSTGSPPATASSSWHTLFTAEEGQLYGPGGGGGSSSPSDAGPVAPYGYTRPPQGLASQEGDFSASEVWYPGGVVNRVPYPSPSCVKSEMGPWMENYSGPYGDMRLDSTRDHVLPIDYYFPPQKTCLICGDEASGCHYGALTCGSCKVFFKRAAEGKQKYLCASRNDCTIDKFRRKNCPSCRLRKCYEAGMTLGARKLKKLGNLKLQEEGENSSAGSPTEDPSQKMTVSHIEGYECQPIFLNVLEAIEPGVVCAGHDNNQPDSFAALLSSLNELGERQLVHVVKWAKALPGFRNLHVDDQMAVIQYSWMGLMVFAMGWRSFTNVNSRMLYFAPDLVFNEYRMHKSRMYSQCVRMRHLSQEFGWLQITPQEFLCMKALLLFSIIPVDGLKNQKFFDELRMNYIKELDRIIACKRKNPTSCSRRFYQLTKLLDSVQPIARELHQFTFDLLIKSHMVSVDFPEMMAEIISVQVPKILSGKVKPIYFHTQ
Description: The 4-chloro-17β-hydroxy-14α,15α-methylene-androst-4-ene-3-one binds to the extent of 42%±3% to the androgen receptor of the rat prostate (reference substance. 17β-hydroxy-17α-methyl-estra-4,9,11-triene-3-one; R 1881).

Hershberger test = settings: in vivo

C[C@]12CCC(=O)C(Cl)=C1CC[C@@H]1[C@@H]2CC[C@]2(C)[C@@H](O)C[C@@H]3C[C@]312 [Example 3, 4-Chloro-17β-hydroxy-14α,15α-methylene-androst-4-ene-3-one]
binding to the progesterone receptor [1]: practically no binding | gestagenic activity in the pregnancy maintenance test [2]: hardly any gestagenic activity | binds to the extent of ... to the androgen receptor [3]: 42%±3% | androgenic activity in the Hershberger test (Hershberger test): distinct androgenic activity
